Results reported in ChEMBL document CHEMBL1201862, “PubChem BioAssay data set” (2004).
Calls of active or inactive are those of the source.

Key:
P388/ADR = assay: cells; assay type: functional; conditions: Mus musculus
P388 = assay: cells; assay type: functional; conditions: Mus musculus
SN12K1 = assay: cells; assay type: functional; conditions: Homo sapiens
[1] = inhibitors of firefly luciferase expression or activity, dose response, H4 neuroglioma cells, luminescence (AID 1990); assay type: functional, cell-based
BJ [2] = assay: cytotoxicity toward BJ-TERT-LT-ST fibroblasts, dose response, cell-based, RAS-independent, luminescence (AID 1935); assay type: functional; conditions: Homo sapiens;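 further: BJ fibroblasts immortalized with TERT plus LT and ST oncogenes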
[3] = inhibitors of SNCA 5'UTR-driven reporter translation, confirmation, H4 neuroglioma cells, luminescence (AID 1988); assay type: functional, cell-based
BJ [4] = assay: cytotoxicity toward BJ-TERT fibroblasts, dose response, cell-based, RAS-independent, luminescence (AID 1933); assay type: functional; conditions: Homo sapiens
[5] = cytotoxicity toward DRD oncogenic fibroblasts, dose response, cell-based, non-viral oncogenic, luminescence (AID 1934); assay type: functional; conditions: Homo sapiens
BJ [6] = assay: cells; assay type: functional, cell-based; conditions: Homo sapiens
[7] = Luminescence Cell-Based Dose Response HTS to Identify Inhibitors of 5'UTR Stem-Loop Driven Prion Protein mRNA Translation in H4 Neuroglioblastoma Cells. [Related pubchem assays: 1827 (Project Summary), 1813 (Primary HTS)]; assay type: functional
[8] = target: FAD-linked sulfhydryl oxidase ALR (Homo sapiens, UniProt P55789); assay: inhibitors of human ALR sulfhydryl oxidase, dose response, biochemical, H2O2 detection, luminescence, cherry-pick (AID 493248)
FAD-linked sulfhydryl oxidase ALR, sequence (P55789 whole entry): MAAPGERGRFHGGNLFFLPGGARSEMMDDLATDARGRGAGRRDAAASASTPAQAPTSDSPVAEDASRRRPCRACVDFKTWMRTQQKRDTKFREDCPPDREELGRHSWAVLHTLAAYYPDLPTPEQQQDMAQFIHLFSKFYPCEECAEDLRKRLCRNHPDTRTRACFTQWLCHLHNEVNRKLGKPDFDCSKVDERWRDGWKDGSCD

[9] = control 3'UTR Renilla luciferase suppression, dose response, counter-screen for Shn3 inhibitor project, cell-based, Clone20-Shn3RL, cherry-picked (AID 624133); assay type: functional
[10] = Shn3 3'UTR reporter inhibitors, dose response, cell-based, Clone20 osteoblasts, firefly luciferase, cherry-picked (AID 624132); assay type: functional;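 further: firefly luciferase luminescence from reporter carrying the Shn3 3'UTR in osteoblasts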
[11] = HepG2 cell cytotoxicity, dose response, cytotoxicity control for Shn3 inhibitor project, CellTiter-Glo, cherry-picked (AID 624134); assay type: functional, cell-based
[12] = target: T1, Replicative DNA helicase DnaB (Mycobacterium tuberculosis, UniProt P9WMR3); assay: DnaB intein splicing inhibitors, dose response, biochemical, cell-free fluorescence (AID 449749); assay type: functional
T1 sequence (P9WMR3 whole entry): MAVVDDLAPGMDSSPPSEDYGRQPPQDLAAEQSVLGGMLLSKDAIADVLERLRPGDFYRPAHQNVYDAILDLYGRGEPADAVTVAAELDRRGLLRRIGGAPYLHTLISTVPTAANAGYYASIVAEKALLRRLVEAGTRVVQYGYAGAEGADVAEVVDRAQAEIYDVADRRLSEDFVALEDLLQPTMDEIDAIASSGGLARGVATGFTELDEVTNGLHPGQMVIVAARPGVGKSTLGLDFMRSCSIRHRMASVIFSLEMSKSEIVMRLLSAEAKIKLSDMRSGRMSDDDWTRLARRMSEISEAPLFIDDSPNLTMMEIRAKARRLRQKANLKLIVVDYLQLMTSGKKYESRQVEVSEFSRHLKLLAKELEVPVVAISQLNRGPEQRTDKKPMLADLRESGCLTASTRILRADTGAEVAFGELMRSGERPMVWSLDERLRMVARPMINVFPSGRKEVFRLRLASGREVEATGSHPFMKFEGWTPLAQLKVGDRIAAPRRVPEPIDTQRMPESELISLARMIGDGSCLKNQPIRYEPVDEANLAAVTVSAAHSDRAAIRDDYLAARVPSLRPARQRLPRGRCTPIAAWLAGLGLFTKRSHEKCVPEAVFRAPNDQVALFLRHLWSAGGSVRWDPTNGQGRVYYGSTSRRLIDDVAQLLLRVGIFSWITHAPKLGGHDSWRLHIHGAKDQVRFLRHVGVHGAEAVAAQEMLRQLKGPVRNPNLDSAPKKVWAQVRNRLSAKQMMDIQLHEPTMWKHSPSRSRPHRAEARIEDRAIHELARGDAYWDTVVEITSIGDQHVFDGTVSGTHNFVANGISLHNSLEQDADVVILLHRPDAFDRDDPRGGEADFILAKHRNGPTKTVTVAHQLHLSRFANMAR

Protein RecA = target: T2, Protein RecA (Mycobacterium tuberculosis, UniProt P9WHJ3); assay: Fluorescence Cell-Free Homogeneous Dose Retest to Identify Inhibitors of RecA-Intein Splicing Activity. [Related pubchem assays (depositor defined):AID2097, AID2223, AID489010, AID492950]; assay type: functional
T2 sequence (P9WHJ3 whole entry): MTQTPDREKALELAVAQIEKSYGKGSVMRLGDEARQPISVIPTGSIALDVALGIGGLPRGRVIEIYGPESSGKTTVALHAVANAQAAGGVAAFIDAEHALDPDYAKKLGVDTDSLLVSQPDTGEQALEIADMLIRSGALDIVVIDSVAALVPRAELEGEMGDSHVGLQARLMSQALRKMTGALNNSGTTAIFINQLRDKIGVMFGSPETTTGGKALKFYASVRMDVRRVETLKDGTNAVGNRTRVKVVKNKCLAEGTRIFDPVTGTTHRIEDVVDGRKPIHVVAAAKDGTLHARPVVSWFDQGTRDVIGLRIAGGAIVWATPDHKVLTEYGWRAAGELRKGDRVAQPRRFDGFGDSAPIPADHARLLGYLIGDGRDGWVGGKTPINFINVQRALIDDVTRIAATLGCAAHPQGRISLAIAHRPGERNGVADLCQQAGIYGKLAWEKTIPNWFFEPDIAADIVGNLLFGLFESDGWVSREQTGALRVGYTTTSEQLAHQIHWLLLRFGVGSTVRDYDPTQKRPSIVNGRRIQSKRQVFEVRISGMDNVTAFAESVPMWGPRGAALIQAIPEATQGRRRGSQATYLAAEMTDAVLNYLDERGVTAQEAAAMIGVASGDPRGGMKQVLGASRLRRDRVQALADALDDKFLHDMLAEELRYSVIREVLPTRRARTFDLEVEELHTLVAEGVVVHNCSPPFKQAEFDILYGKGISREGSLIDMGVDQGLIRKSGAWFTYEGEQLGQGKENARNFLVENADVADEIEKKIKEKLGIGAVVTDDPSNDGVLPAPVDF

With CCOC(=O)C(C)NC(=O)N(C)C12CC3CC(CC(C3)C1)C2 (stereo not drawn) the GI50 (P388/ADR) was 123 µM (inactive), the GI50 (P388) was 52.2 µM (inactive) and the GI50 (SN12K1) was 190 µM (inactive).

For COc1ccc(C)cc1NC(=O)CNC(c1ccccc1)c1ccc(C)cc1 (stereo not drawn), the EC50 [1] was 10.3 µM (active), the EC50 (BJ [2]) was 2.79 µM (active) and the EC50 [3] was 0.205 µM (active). The EC50 (BJ [4]) was 2.53 µM (active), the EC50 [5] was 1.39 µM (active) and the EC50 (BJ [6]) was 50.2 µM (inconclusive).

With COc1cccc(N2CCN(C(=O)c3ccc(C[S+]([O-])c4ccc(Cl)cc4)o3)CC2)c1 (stereo not drawn) the EC50 [1] was 4.79 µM (inconclusive), the EC50 [7] was 6.76 µM (active) and the AC50 [8] was 3.44 µM (active). For the same molecule, the EC50 [3] was 0.67 µM (active).

In the case of Cc1ccc(C)c(NC(=O)CN(C)C(=O)c2cccc(S(=O)(=O)N3CCN(Cc4ccccc4)CC3)c2)c1, the AC50 [9] is reported as 5.74 µM (active), the AC50 [10] is reported as 3.5 µM (active) and the AC50 [11] is reported as 62.2 µM (active).

In the case of O=Cc1cccnc1SCc1ccccc1, the EC50 (BJ [2]) is reported as 11.1 µM (inconclusive), the EC50 (BJ [4]) is reported as 10.5 µM (active) and the EC50 [5] is reported as 21.3 µM (active). For the same molecule, the EC50 (BJ [6]) was 16.3 µM (active).

For O=S1(=O)N2CN3CN(C2)CN1C3, the GI50 (P388/ADR) was 21.2 µM (inactive), the GI50 (P388) was 18.5 µM (inactive) and the GI50 (SN12K1) was > 100 µM (inactive).

In the case of CCOC(=O)COc1ccccc1/C=C1\CCC(CN(C)C)C1=O (stereo not drawn), the GI50 (P388/ADR) is reported as 0.436 µM (active), the GI50 (P388) is reported as 0.342 µM (active) and the GI50 (SN12K1) is reported as 1.87 µM (inactive).

For C=CCNc1nc(N2CCCCC2)c(C#N)c2c1CN(Cc1ccccc1)CC2, the AC50 [9] was 28.9 µM (active), the AC50 [10] was 16.8 µM (active) and the AC50 [11] was > 70 µM (inactive).

For C=CCNc1nc(N2CCOCC2)c(C#N)c2c1CN(C)CC2, the AC50 [9] was 28.2 µM (active) and the AC50 [10] was > 70 µM (inactive).

With Cc1c(C2=NN=C(/N=N/c3c(O)cccc3O)/C2=C/c2ccccc2)c(=O)n(-c2ccccc2)n1C the GI50 (P388/ADR) was > 100 µM (inactive), the GI50 (P388) was > 100 µM (inactive) and the GI50 (SN12K1) was > 100 µM (inactive).

With CSCC[C@H](NC(=O)N1CCn2c1nc1ccccc12)C(=O)NCc1ccco1 the AC50 [8] was 6.97 µM (active).

For C=CCNC(=O)C(C)C1CCC2(C)C=CC(=O)C(C)=C2C1O (stereo not drawn), the GI50 (P388/ADR) was > 100 µM (inactive), the GI50 (P388) was > 100 µM (inactive) and the GI50 (SN12K1) was > 100 µM (inactive).

With CC12CCC3C(CCC4(O)C=CCCC34C=O)C1(O)CC(O)C2c1ccc(=O)oc1 (stereo not drawn) the GI50 (P388/ADR) was > 500 µM (inactive), the GI50 (P388) was 336 µM (inactive) and the GI50 (SN12K1) was 0.0624 µM (active).

For CC1(CO)C(O)CCC2(C)C1CCC1CC3CC12CCC3(O)CO (stereo not drawn), the GI50 (P388/ADR) was 0.42 µM (active), the GI50 (P388) was 0.394 µM (active) and the GI50 (SN12K1) was 1.16 µM (inactive).

In the case of O=C(CSc1nc2ccccc2nc1SCC(=O)N1CCOCC1)N1CCOCC1, the AC50 [12] is reported as 194 µM (active) and the EC50 (Protein RecA) is reported as > 380 µM (inactive).

In the case of Sc1nc2ccc(Cl)cc2s1, the AC50 [8] is reported as 2.39 µM (active).

For Cc1[nH]c2ccccc2c1/C=N/NC(=O)Cc1cccs1, the AC50 [8] was 4.46 µM (active).
